Laboratory results as given in patent US9458137B2, “Substituted indol-5-ol derivatives and their therapeutical applications” (NantBioScience, Inc., priority 2012, dated 2016).

Tests used:
Test in all cases: Kinase panel activity
Assay type in all cases: biochemical
Conditions in all cases: 0.1 μM, ATP Km
1tk(h) = 1tk(h) (Homo sapiens, UniProt Q08881)
Procedure: (§1) The effect of NTW-3475 on kinase activity was tested for a wide range of kinases and is shown in Table 2: Summary Sheet, Activity % ATP Concentration: Km

Ax1(h) = Ax1(h) (Homo sapiens, UniProt P30530)
Procedure: as §1

CHK2(II57T)(h) = CHK2(II57T)(h) (Homo sapiens, UniProt O96017, I157T)
Procedure: as §1

CLK3(h) = CLK3(h) (Homo sapiens, UniProt P49761)
Procedure: as §1

CSK(h) = CSK(h) (Homo sapiens, UniProt P41240)
Procedure: as §1

DMPK(h) = DMPK(h) (Homo sapiens, UniProt Q09013)
Procedure: as §1

EGFR(T790M)(h) = biological target: T1, EGFR(T790M)(h) (Homo sapiens, UniProt P00533, T790M)
T1 construct: purchased Millipore (KinaseProfiler service)
Procedure: as §1

EphB1(h) = biological target: T2, EphB1(h) (Homo sapiens, UniProt P54762)
T2 construct: purchased Millipore (KinaseProfiler service)
Procedure: as §1

F1t3(h) = F1t3(h) (Homo sapiens, UniProt P36888)
Procedure: as §1

FGFR1(h) = biological target: T3, FGFR1(h) (Homo sapiens, UniProt P11362)
T3 construct: purchased Millipore (KinaseProfiler service)
Procedure: as §1

Hck(h) = Hck(h) (Homo sapiens, UniProt P08631)
Procedure: as §1

IKKα(h) = IKKα(h) (Homo sapiens, UniProt O15111)
Procedure: as §1

LIMK1(h) = LIMK1(h) (Homo sapiens, UniProt P53667)
Procedure: as §1

MAPK1(h) = MAPK1(h) (Homo sapiens, UniProt P27361)
Procedure: as §1

MAPKAP-K2(h) = biological target: T4, MAPKAP-K2(h) (Homo sapiens, UniProt P49137)
T4 construct: purchased Millipore (KinaseProfiler service)
Procedure: as §1

MEK1(h) = biological target: T5, MEK1(h) (Homo sapiens, UniProt Q02750)
T5 construct: purchased Millipore (KinaseProfiler service)
Procedure: as §1

MKK7β(h) = biological target: T6, MKK7β(h) (Homo sapiens, UniProt O14733)
T6 construct: purchased Millipore (KinaseProfiler service)
Procedure: as §1

MLK1(h) = biological target: T7, MLK1(h) (Homo sapiens, UniProt P80192)
T7 construct: purchased Millipore (KinaseProfiler service)
Procedure: as §1

MRCKβ(h) = biological target: T8, MRCKβ(h) (Homo sapiens, UniProt Q9Y5S2)
T8 construct: purchased Millipore (KinaseProfiler service)
Procedure: as §1

MST2(h) = MST2(h) (Homo sapiens, UniProt Q13188)
Procedure: as §1

Met(D1246H)(h) = biological target: T9, Met(D1246H)(h) (Homo sapiens, UniProt P08581, D1228H)
T9 construct: purchased Millipore (KinaseProfiler service)
Procedure: as §1

Met(Y1248C)(h) = biological target: T10, Met(Y1248C)(h) (Homo sapiens, UniProt P08581, Y1230C)
T10 construct: purchased Millipore (KinaseProfiler service)
Procedure: as §1

Met(Y1248H)(h) = biological target: T11, Met(Y1248H)(h) (Homo sapiens, UniProt P08581, Y1230H)
T11 construct: purchased Millipore (KinaseProfiler service)
Procedure: as §1

NEK2(h) = NEK2(h) (Homo sapiens, UniProt P51955)
Procedure: as §1

NEK7(h) = NEK7(h) (Homo sapiens, UniProt Q8TDX7)
Procedure: as §1

PAK2(h) = PAK2(h) (Homo sapiens, UniProt Q13177)
Procedure: as §1

PKCγ(h) = PKCγ(h) (Homo sapiens, UniProt P05129)
Procedure: as §1

PKCη(h) = PKCη(h) (Homo sapiens, UniProt P24723)
Procedure: as §1

PKCμ(h) = PKCμ(h) (Homo sapiens, UniProt Q15139)
Procedure: as §1

Ret(V804M)(h) = biological target: T12, Ret(V804M)(h) (Homo sapiens, UniProt P07949, V804M)
T12 construct: purchased Millipore (KinaseProfiler service)
Procedure: as §1

Ret(h) = biological target: T13, Ret(h) (Homo sapiens, UniProt P07949)
T13 construct: purchased Millipore (KinaseProfiler service)
Procedure: as §1

Rsk3(h) = biological target: T14, Rsk3(h) (Homo sapiens, UniProt Q15349)
T14 construct: purchased Millipore (KinaseProfiler service)
Procedure: as §1

Rsk4(h) = biological target: T15, Rsk4(h) (Homo sapiens, UniProt Q9UK32)
T15 construct: purchased Millipore (KinaseProfiler service)
Procedure: as §1

SGK2(h) = biological target: T16, SGK2(h) (Homo sapiens, UniProt Q9HBY8)
T16 construct: purchased Millipore (KinaseProfiler service)
Procedure: as §1

SRPK2(h) = biological target: T17, SRPK2(h) (Homo sapiens, UniProt P78362)
T17 construct: purchased Millipore (KinaseProfiler service)
Procedure: as §1

Src(1-530)(h) = biological target: T18, Src(1-530)(h) (Homo sapiens, UniProt P12931)
T18 construct: Src(1-530)(h); purchased Millipore (KinaseProfiler service)
Procedure: as §1

ULK2(h) = ULK2(h) (Homo sapiens, UniProt Q8IYT8)
Procedure: as §1

WNK2(h) = WNK2(h) (Homo sapiens, UniProt Q9Y3S1)
Procedure: as §1

cKit(V654A)(h) = cKit(V654A)(h) (Homo sapiens, UniProt P10721, V654A)
Procedure: as §1

Hck(h), sequence (P08631 whole entry): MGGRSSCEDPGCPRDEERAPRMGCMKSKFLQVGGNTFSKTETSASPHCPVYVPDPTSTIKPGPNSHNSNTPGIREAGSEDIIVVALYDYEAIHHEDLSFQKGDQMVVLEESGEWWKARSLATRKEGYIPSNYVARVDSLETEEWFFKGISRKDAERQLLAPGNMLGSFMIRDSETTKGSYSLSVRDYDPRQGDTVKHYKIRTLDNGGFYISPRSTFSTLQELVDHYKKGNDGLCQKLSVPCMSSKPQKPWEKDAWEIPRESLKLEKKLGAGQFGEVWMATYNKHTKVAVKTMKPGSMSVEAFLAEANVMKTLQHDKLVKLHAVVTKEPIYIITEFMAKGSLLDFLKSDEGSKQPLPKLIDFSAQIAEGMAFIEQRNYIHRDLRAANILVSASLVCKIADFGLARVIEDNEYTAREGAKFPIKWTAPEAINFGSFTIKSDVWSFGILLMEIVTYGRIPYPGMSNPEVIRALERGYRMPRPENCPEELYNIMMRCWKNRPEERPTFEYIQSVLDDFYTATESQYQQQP
NEK7(h), sequence (Q8TDX7 whole entry): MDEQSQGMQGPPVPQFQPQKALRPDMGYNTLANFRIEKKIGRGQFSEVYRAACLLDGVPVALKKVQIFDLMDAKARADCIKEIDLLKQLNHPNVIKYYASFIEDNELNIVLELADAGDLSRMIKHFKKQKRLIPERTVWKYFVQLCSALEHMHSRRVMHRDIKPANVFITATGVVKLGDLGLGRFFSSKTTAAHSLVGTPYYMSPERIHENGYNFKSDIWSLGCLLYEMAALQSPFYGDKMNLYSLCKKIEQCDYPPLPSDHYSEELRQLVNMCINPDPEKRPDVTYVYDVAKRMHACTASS
T8 sequence (Q9Y5S2 whole entry): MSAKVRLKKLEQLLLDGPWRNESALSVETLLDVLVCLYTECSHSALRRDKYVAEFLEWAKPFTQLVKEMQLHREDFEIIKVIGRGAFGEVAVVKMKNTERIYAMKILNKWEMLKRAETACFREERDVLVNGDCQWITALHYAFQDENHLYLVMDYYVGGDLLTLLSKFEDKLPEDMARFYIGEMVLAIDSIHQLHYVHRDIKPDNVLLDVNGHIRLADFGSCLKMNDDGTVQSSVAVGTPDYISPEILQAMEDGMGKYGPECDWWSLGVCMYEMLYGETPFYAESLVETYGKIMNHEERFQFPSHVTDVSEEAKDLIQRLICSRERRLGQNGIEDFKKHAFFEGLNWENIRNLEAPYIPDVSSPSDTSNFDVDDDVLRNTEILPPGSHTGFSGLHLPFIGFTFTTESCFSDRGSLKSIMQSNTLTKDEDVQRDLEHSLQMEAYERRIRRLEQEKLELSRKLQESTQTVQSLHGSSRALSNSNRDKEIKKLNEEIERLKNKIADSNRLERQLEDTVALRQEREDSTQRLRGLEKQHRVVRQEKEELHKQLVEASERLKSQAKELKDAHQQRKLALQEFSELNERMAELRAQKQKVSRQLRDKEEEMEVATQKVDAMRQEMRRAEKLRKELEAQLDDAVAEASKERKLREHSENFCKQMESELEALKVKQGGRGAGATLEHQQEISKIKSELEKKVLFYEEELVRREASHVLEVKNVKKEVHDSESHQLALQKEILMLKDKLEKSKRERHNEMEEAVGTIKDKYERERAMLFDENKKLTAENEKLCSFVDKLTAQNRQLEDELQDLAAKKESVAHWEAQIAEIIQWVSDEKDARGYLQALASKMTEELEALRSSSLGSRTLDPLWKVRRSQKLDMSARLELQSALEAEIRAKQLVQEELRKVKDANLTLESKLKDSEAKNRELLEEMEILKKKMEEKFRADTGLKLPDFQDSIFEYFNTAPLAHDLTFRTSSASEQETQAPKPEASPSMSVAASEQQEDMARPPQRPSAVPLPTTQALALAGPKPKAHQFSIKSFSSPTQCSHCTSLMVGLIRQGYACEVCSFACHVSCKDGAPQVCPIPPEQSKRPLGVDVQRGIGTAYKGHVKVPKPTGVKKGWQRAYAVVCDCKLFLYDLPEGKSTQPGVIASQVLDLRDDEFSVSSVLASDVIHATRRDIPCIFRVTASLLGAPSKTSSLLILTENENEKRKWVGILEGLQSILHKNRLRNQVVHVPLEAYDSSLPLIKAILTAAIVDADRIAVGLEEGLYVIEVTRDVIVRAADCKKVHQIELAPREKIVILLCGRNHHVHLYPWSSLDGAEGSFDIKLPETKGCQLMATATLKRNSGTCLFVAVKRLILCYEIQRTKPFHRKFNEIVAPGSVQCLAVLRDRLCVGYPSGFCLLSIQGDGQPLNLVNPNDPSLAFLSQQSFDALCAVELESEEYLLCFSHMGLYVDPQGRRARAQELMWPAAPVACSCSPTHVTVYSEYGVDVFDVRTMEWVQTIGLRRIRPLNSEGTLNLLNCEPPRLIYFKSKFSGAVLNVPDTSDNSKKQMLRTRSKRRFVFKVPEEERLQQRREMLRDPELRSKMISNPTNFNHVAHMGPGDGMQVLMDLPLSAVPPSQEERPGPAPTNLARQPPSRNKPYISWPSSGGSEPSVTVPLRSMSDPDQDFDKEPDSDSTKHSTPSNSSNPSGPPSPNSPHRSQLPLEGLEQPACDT
1tk(h), sequence (Q08881 whole entry): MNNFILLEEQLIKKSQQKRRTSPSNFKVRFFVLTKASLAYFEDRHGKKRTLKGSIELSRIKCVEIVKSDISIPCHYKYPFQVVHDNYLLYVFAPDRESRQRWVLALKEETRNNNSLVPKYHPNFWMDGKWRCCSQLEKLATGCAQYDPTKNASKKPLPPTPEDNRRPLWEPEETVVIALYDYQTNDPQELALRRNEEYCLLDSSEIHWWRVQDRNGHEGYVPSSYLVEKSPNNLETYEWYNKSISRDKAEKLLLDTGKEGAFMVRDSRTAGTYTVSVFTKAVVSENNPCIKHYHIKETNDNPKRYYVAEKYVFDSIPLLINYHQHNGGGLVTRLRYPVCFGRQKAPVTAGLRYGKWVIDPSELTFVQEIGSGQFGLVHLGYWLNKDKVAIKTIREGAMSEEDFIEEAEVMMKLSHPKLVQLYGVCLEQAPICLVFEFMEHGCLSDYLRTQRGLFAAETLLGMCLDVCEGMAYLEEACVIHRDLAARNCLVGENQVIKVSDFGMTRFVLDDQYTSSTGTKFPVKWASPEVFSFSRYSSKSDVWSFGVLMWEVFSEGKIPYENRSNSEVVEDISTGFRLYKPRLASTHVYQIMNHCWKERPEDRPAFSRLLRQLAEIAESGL
PKCη(h), sequence (P24723 whole entry): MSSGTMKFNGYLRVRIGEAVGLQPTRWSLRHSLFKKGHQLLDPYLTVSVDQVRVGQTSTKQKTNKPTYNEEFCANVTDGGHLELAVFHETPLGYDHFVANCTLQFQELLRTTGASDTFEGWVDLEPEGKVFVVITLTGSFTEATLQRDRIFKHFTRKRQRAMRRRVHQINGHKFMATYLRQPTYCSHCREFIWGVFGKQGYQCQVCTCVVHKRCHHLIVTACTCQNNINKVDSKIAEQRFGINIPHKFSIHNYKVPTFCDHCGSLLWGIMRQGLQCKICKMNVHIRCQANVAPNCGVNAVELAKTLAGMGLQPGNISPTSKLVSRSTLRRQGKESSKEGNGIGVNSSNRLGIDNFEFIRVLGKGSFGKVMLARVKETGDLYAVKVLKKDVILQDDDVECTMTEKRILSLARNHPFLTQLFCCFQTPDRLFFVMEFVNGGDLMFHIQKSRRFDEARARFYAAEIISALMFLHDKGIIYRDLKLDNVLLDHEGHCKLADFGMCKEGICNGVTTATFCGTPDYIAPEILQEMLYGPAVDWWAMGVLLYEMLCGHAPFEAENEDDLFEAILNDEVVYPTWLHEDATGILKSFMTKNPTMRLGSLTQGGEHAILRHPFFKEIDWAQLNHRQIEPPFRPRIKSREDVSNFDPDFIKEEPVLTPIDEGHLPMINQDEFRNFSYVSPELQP
MST2(h), sequence (Q13188 whole entry): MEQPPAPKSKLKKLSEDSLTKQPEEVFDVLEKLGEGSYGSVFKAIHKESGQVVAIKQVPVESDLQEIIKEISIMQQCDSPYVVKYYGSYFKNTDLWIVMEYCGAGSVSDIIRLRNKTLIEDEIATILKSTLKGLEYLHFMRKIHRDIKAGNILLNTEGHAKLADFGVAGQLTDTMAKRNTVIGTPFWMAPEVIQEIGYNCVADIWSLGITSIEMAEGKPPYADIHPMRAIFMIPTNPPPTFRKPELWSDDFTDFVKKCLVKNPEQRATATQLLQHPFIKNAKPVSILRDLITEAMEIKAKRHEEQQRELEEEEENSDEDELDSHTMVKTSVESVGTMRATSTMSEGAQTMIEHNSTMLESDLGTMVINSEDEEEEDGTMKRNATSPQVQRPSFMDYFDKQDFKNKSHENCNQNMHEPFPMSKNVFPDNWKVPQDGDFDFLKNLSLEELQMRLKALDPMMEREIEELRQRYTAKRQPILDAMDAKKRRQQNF

For `Cc1cc2c(F)c(Oc3nc(Nc4cc(C5CC5)[nH]n4)cc(N4CCN(C)CC4)n3)cc(F)c2[nH]1` [NTW-3475], the Activity % (1tk(h)) was 29%, the Activity % (Ax1(h)) was 34% and the Activity % (CHK2(II57T)(h)) was 112%. For the same compound, the Activity % (CLK3(h)) was 87%, the Activity % (CSK(h)) was 75% and the Activity % (DMPK(h)) was 102%. It also gave an Activity % (EGFR(T790M)(h)) of 61%, an Activity % (EphB1(h)) of −1% and an Activity % (F1t3(h)) of 1%. It also gave an Activity % (FGFR1(h)) of −1%, an Activity % (Hck(h)) of 18% and an Activity % (IKKα(h)) of 102%. For the same compound, the Activity % (LIMK1(h)) was 15%, the Activity % (MAPK1(h)) was 128% and the Activity % (MAPKAP-K2(h)) was 105%. It also gave an Activity % (MEK1(h)) of 63%, an Activity % (MKK7β(h)) of 97% and an Activity % (MLK1(h)) of 7%. It also gave an Activity % (MRCKβ(h)) of 108%, an Activity % (MST2(h)) of 79% and an Activity % (Met(D1246H)(h)) of 18%. For the same compound, the Activity % (Met(Y1248C)(h)) was 20%, the Activity % (Met(Y1248H)(h)) was 16% and the Activity % (NEK2(h)) was 101%. The Activity % (NEK7(h)) was 98%, the Activity % (PAK2(h)) was 65% and the Activity % (PKCγ(h)) was 102%. For the same compound, the Activity % (PKCη(h)) was 101%, the Activity % (PKCμ(h)) was 95% and the Activity % (Ret(V804M)(h)) was 0%. The Activity % (Ret(h)) was −1%, the Activity % (Rsk3(h)) was 25% and the Activity % (Rsk4(h)) was 66%. For the same compound, the Activity % (SGK2(h)) was 107%, the Activity % (SRPK2(h)) was 99% and the Activity % (Src(1-530)(h)) was −2%. It also gave an Activity % (ULK2(h)) of 46%, an Activity % (WNK2(h)) of 99% and an Activity % (cKit(V654A)(h)) of 32%.
